Consider one compound from patent US20250057823A1, “COMPOSITION FOR IMPROVING CARDIAC FUNCTION” (Kyoto University, priority 2021, published 2025).

Structures are written as SMILES. “Also recorded” adds a separate entry of the source. Counter-ions that a name gives are not always drawn.

What all share (assay type): in vivo
The subject of experiment [1] is mouse models of pressure overload-induced cardiac hypertrophy/heart failure (TAC). The experiment can be described thus: Mouse models of pressure overload-induced (TAC) heart failure during acute phase. The note with it: TAC mice, 50 mg/kg i.p. immediately after TAC, three hours later. As to the method: (§1) Transverse aortic constriction (TAC) was performed as described previously [Date, et al. (2002) The antioxidant N-2-mercaptopropionyl glycine attenuates left ventricular hypertrophy in in vivo murine pressure-overload model. J Am Coll Cardiol 39: 907-912.]. Briefly, 8- to 10-week-old mice were anesthetized with anesthetic (0.3 mg/kg of medetomidine, 4.0 mg/kg of midazolam, and 5.0 mg/kg of butorphanol) administered intraperitoneally, and the proximal portion of the sternum was cut open to visualize the aorta. A 7-0 silk suture was placed around the aortic arch distal to the brachiocephalic artery. The suture was tightened firmly around a blunt 26-gauge needle placed adjacent to the aorta. The needle was then removed, and the chest and overlying skin were closed. Sham-operated mice underwent an identical surgical procedure without ligation of the aortic arch. At the end of the operation, 0.3 mg/kg of atipamezole was administered subcutaneously to reverse medetomidine. FIG. 1 is a schematic diagram of TAC.
To extract total RNA, tissue samples were homogenized using a polytron homogenizer in 1 mL of TriPure reagent (Sigma-Aldrich), and the total RNA was extracted in accordance with the manufacture's protocol. Total RNA extracted from cells was also isolated using 1 mL of TriPure reagent. The quantity and quality of total RNA were determined using a NanoDrop™2000 spectrophotometer (Thermo Scientific).
Total RNA was reverse transcribed by blend primer of random hexamers and oligo-dT 3:1 (volume/volume) using Verso™ cDNA Synthesis Kit (Thermo Fisher Scientific, AB1453A) in accordance with the manufacturer's protocol, and the cDNA was analyzed by qRT-PCR. qRT-PCR measurements used THUNDERBIRD SYBR qPCR Mix (TOYOBO) in accordance with the manufacturer's instructions. Expression levels of messenger RNAs (mRNAs) were normalized by the indicated housekeeping genes, and calculated by the 2^−ΔΔCt method. All analyses were performed using a StepOnePlus real-time PCR system and StepOne Software v2.3 (Applied Biosystems, Inc). […]

Experiment [2] has the same test system. Briefly: Mouse models of TAC heart failure during heart failure phase. The conditions noted are these: 50 mg/kg i.p. daily for 3 weeks starting 5 weeks after TAC. The protocol: as §1
Total RNA was reverse transcribed by blend primer of random hexamers and oligo-dT 3:1 (volume/volume) using Verso™ cDNA Synthesis Kit (Thermo Fisher Scientific, AB1453A) in accordance with the manufacturer's protocol, and the cDNA was analyzed by qRT-PCR. qRT-PCR measurements used THUNDERBIRD SYBR qPCR Mix (TOYOBO) in accordance with the manufacturer's instructions. Expression levels of messenger RNAs (mRNAs) were normalized by the indicated housekeeping genes, and calculated by the 2^−ΔΔCt method. All analyses were performed using a StepOnePlus real-time PCR system and StepOne Software v2.3 (Applied Biosystems, Inc).
Tissues were fixed with 4% paraformaldehyde, dehydrated with 70% ethanol, and then embedded in paraffin. Deparaffinized sections were stained with hematoxylin solution for cell nucleus, and stained with eosin solution for cytoplasm. Images were captured by Axio Observer7 (Zeiss). Cardiomyocyte cross-sectional area measurement was performed using ImageJ64 software (NIH). Approximately 150-200 cells were measured per heart, and averages were used for the analysis.
As described above, deparaffinized sections were stained with hematoxylin solution for cell nucleus, Masson solution for cytoplasm, and aniline blue for collagen fiber. Images were captured by a microscopy (BZ-9000, Keyence). Aniline blue-stained regions were measured using ImageJ64 software (NIH).
(§2) To analyze the cardiac function, we used Vevo® 2100 (VISUALSONICS) at the indicated time points after TAC operation. Mice were kept under inhalation anesthesia with 2.5% isoflurane. LV function was measured in M mode of the parasternal short-axis view.
Mouse models of pressure overload-induced cardiac hypertrophy/heart failure were prepared by TAC and were injected intraperitoneally with 50 mg/kg of KUS121 daily for 3 weeks starting 5 weeks after TAC. Sham-operated mice and control mice were injected with 5% glucose. Echocardiography was performed 5 weeks and 8 weeks after TAC. Eight weeks after TAC, the mice were sacrificed, the body weight and heart weight were measured, and heart samples were collected.

The test system of another experiment is TAC mice. The experiment can be described thus: Acute effect on mouse models of heart failure (TAC, single injection 5 weeks later). The protocol: as §1, §2
Mice were subjected to TAC at 8 weeks of age. Five weeks later (at 13 weeks of age), the mice were injected with KUS121 (50 mg/kg), and left ventricular ejection fraction (LVEF), left ventricular end-diastolic diameter (LVDd), and heart rate (HR) were assessed by echocardiography before and 10 minutes after the injection.
Mice were subjected to TAC at 8 weeks of age. Five weeks later (at 13 weeks of age), the mice were injected with KUS121 (50 mg/kg), and left ventricular pressure was measured by catheterization before and 10 minutes after the injection. The left ventricular pressure was 46.6 mmHg before KUS121 administration, and increased to 128.9 mmHg 10 minutes after the administration. In addition, Max/min dp/dt was changed from 1295.5/−621.4 mmHg/s to 3972.8/−1311.1 mmHg/s. […] Left ventricular ejection fraction was then measured over time and was 37% before KUS121 administration, increased to 67% 5 minutes after the administration, and returned to the baseline about 2 hours after the administration (FIG. 16).
Mice were subjected to TAC at 8 weeks of age. Five weeks later (at 13 weeks of age), the mice were injected with KUS187 (50 mg/kg), and left ventricular ejection fraction was assessed by echocardiography before and 10 minutes after the injection.

Setting [3] is: TAC mice 5 weeks after TAC, 50 mg/kg, echocardiography before and 10 minutes after injection.

For the compound `Cc1cc(F)ccc1-c1ccc(/N=N/c2cc(S(=O)(=O)O)c3ccccc3c2N)cn1` [KUS121, 4-amino-3-[6-(4-fluoro-2-methylphenyl)pyridine-3-ylazo]naphthalene-1-sulfonic acid sodium salt], in experiment [1], the “ratio of heart weight to body weight” value is on record as “not significantly affected”. Besides, in experiment [1] (vs 5% glucose control), the “mRNA level of BNP” value is reported as “suppressed the increases” and the “ratio of lung weight to body weight” value is recorded as “suppressed the increases”. For the same compound, in experiment [2] (TAC mice), the cardiomyocyte cross-sectional area entry was “suppressed it” and the “fibrotic area in Masson's trichrome-stained heart” value was “suppressed”. Besides, in experiment [2] (TAC mice, 8 weeks after TAC), the heart weight entry is “suppressed the increase in heart weight” and the “left ventricular systolic dysfunction (LVEF, echocardiography)” value is listed as “suppressed the dysfunction”. In experiment [2] (heart, qRT-PCR), the “mRNA level of Col1a1 (cardiac fibrosis marker)” value is given as “suppressed”; the “mRNA level of Postn (cardiac fibrosis marker)” value is given as “suppressed”; the “mRNA level of VCP” value is listed as “increased the mRNA level of VCP”; the “mRNA levels of ANF, BNP, CHOP and Bip (other cardiac hypertrophy and endoplasmic reticulum stress markers)” value was “did not significantly affect the other mRNA levels”. Besides, the “left ventricular ejection fraction” value in the experiment with TAC mice (5 minutes after 50 mg/kg, 37% before administration) was 67%. The “heart rate (HR)” value in the experiment with TAC mice (TAC mice 5 weeks after TAC, 50 mg/kg, before and 10 minutes after injection, sodium salt, 50 mg/kg) is listed as “without significantly affecting heart rate; also recorded: without affecting HR”. Besides, in the experiment on TAC mice (setting [3]), the “left ventricular ejection fraction (LVEF)” value was “Recoveries” and the “left ventricular end-diastolic diameter (LVDd)” value is reported as “Recoveries”. Moreover, in the experiment on TAC mice (TAC mice, 50 mg/kg, LVEF measured over time), the “time after administration at which left ventricular ejection fraction returned to the baseline” value is listed as “about 2 hours”. This compound gave a left ventricular pressure in the experiment with TAC mice (catheterization, 10 minutes after 50 mg/kg, 46.6 mmHg before administration) of 128.9 mmHg. Also, the Max dp/dt in the experiment on TAC mice (catheterization, 10 minutes after 50 mg/kg, 1295.5 mmHg/s before administration) is recorded as 3972.8 mmHg/s. Moreover, the min dp/dt in the experiment with TAC mice (catheterization, 10 minutes after 50 mg/kg, −621.4 mmHg/s before administration) was −1311.1 mmHg/s.
